Legend:
Assay in all cases: relative viability (nuclei count vs DMSO), 5 days (fraction); higher = more cells survive
[1] = compound: CCOC(=O)CCNc1cc(N2CCc3ccccc3CC2)nc(-c2ccccn2)n1 [GSK-J4] + Nc1ncn([C@H]2C[C@H](O)[C@@H](CO)O2)c(=O)n1 [Decitabine] (partner 2 µM)
Procedure, shortened: (§1)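 For relative viability, nuclei counts in treated wells were divided by those in vehicle wells. Lung cancer cell lines had been pin-tool dosed in 1536-well plates the day after seeding and cultured for 5 days, then fixed and stained in one step (final 0.05% Triton X-100, 1% formaldehyde, 1 ug/ml Hoechst) and imaged at 4×. Doses were one drug alone or a fixed anchor-drug dose plus five library-drug doses (not always all listed) in √10 steps, and values are duplicate-plate medians.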

[2] = compound: CCOC(=O)CCNc1cc(N2CCc3ccccc3CC2)nc(-c2ccccn2)n1 [GSK-J4] + CC(C)C[C@H](NC(=O)[C@H](Cc1ccccc1)NC(=O)c1cnccn1)B(O)O [Bortezomib] (partner 0.002 µM)
Procedure, shortened: as §1

[3] = compound: CN1CCC(CC1)OC2=CC(=C(C=C2)NC3=NC=C4C(=N3)N(C(=O)N4C)C5CCCC5)OC [AZ3146] + Cc1nc(Nc2ncc(C(=O)Nc3c(C)cccc3Cl)s2)cc(N2CCN(CCO)CC2)n1 [Dasatinib] (partner 0.075 µM)
Procedure, shortened: as §1

[4] = compound: CN1CCC(CC1)OC2=CC(=C(C=C2)NC3=NC=C4C(=N3)N(C(=O)N4C)C5CCCC5)OC [AZ3146] + CCNC(=O)c1noc(-c2cc(C(C)C)c(O)cc2O)c1-c1ccc(CN2CCOCC2)cc1 [Luminespib] (partner 0.01 µM)
Procedure, shortened: as §1

NCI-H3122 gave a relative viability ([1]; first compound 0.5 µM) of 0.476, a relative viability ([1]; first compound 1.581 µM) of 0.459 and a relative viability ([1]; first compound 5 µM) of 0.454. It also gave a relative viability ([1]; first compound 15.81 µM) of 0.345, a relative viability ([1]; first compound 50 µM) of 0.415 and a relative viability ([2]; first compound 0.5 µM) of 0.938. It also gave a relative viability ([2]; first compound 1.581 µM) of 0.982, a relative viability ([2]; first compound 5 µM) of 0.986 and a relative viability ([2]; first compound 15.81 µM) of 1.02. For the same cell line, the relative viability ([2]; first compound 50 µM) was 0.993, the relative viability ([3]; first compound 0.08 µM) was 0.878 and the relative viability ([3]; first compound 0.253 µM) was 0.816. The relative viability ([3]; first compound 0.8 µM) was 0.859, the relative viability ([3]; first compound 2.53 µM) was 0.817 and the relative viability ([3]; first compound 8 µM) was 0.752. It also gave a relative viability ([4]; first compound 0.08 µM) of 0.12, a relative viability ([4]; first compound 0.253 µM) of 0.113 and a relative viability ([4]; first compound 0.8 µM) of 0.108. For the same cell line, the relative viability ([4]; first compound 2.53 µM) was 0.111 and the relative viability ([4]; first compound 8 µM) was 0.0978.

Work on PC-3 [JPC-3] yielded a relative viability ([1]; first compound 0.5 µM) of 0.883, a relative viability ([1]; first compound 1.581 µM) of 0.735 and a relative viability ([1]; first compound 5 µM) of 0.801. For the same cell line, the relative viability ([1]; first compound 15.81 µM) was 0.876, the relative viability ([1]; first compound 50 µM) was 0.781 and the relative viability ([2]; first compound 0.5 µM) was 0.77. For the same cell line, the relative viability ([2]; first compound 1.581 µM) was 0.764, the relative viability ([2]; first compound 5 µM) was 0.705 and the relative viability ([2]; first compound 15.81 µM) was 0.789. It also gave a relative viability ([2]; first compound 50 µM) of 0.816, a relative viability ([3]; first compound 0.08 µM) of 0.86 and a relative viability ([3]; first compound 0.253 µM) of 0.92. For the same cell line, the relative viability ([3]; first compound 0.8 µM) was 0.991, the relative viability ([3]; first compound 2.53 µM) was 1.12 and the relative viability ([3]; first compound 8 µM) was 1.05. For the same cell line, the relative viability ([4]; first compound 0.08 µM) was 0.617, the relative viability ([4]; first compound 0.253 µM) was 0.741 and the relative viability ([4]; first compound 0.8 µM) was 0.676. The relative viability ([4]; first compound 2.53 µM) was 0.695 and the relative viability ([4]; first compound 8 µM) was 0.715.

With PC-14 the relative viability ([1]; first compound 0.5 µM) was 0.231, the relative viability ([1]; first compound 1.581 µM) was 0.218 and the relative viability ([1]; first compound 5 µM) was 0.259. The relative viability ([1]; first compound 15.81 µM) was 0.232, the relative viability ([1]; first compound 50 µM) was 0.268 and the relative viability ([2]; first compound 0.5 µM) was 0.719. For the same cell line, the relative viability ([2]; first compound 1.581 µM) was 0.91, the relative viability ([2]; first compound 5 µM) was 0.973 and the relative viability ([2]; first compound 15.81 µM) was 0.759. It also gave a relative viability ([2]; first compound 50 µM) of 0.8, a relative viability ([3]; first compound 0.08 µM) of 0.271 and a relative viability ([3]; first compound 0.253 µM) of 0.268. For the same cell line, the relative viability ([3]; first compound 0.8 µM) was 0.259, the relative viability ([3]; first compound 2.53 µM) was 0.229 and the relative viability ([3]; first compound 8 µM) was 0.0367. It also gave a relative viability ([4]; first compound 0.08 µM) of 0.162, a relative viability ([4]; first compound 0.253 µM) of 0.169 and a relative viability ([4]; first compound 2.53 µM) of 0.252. For the same cell line, the relative viability ([4]; first compound 8 µM) was 0.159.

RERF-LC-KJ showed a relative viability ([1]; first compound 0.5 µM) of 0.624, a relative viability ([1]; first compound 1.581 µM) of 0.605 and a relative viability ([1]; first compound 5 µM) of 0.602. The relative viability ([1]; first compound 15.81 µM) was 0.654, the relative viability ([1]; first compound 50 µM) was 0.417 and the relative viability ([2]; first compound 0.5 µM) was 0.989. It also gave a relative viability ([2]; first compound 1.581 µM) of 0.993, a relative viability ([2]; first compound 5 µM) of 1.04 and a relative viability ([2]; first compound 15.81 µM) of 1.11. The relative viability ([2]; first compound 50 µM) was 0.963, the relative viability ([3]; first compound 0.08 µM) was 0.877 and the relative viability ([3]; first compound 0.253 µM) was 0.874. The relative viability ([3]; first compound 0.8 µM) was 0.779, the relative viability ([3]; first compound 2.53 µM) was 0.837 and the relative viability ([3]; first compound 8 µM) was 0.504. It also gave a relative viability ([4]; first compound 0.08 µM) of 1.15, a relative viability ([4]; first compound 0.253 µM) of 1.2 and a relative viability ([4]; first compound 0.8 µM) of 1.22. It also gave a relative viability ([4]; first compound 2.53 µM) of 1.29 and a relative viability ([4]; first compound 8 µM) of 0.668.

Work on SK-LU-1 yielded a relative viability ([1]; first compound 0.5 µM) of 0.653, a relative viability ([1]; first compound 1.581 µM) of 0.605 and a relative viability ([1]; first compound 5 µM) of 0.538. It also gave a relative viability ([1]; first compound 15.81 µM) of 0.633, a relative viability ([1]; first compound 50 µM) of 0.524 and a relative viability ([2]; first compound 0.5 µM) of 1.02. It also gave a relative viability ([2]; first compound 1.581 µM) of 1.06, a relative viability ([2]; first compound 5 µM) of 0.705 and a relative viability ([2]; first compound 15.81 µM) of 0.8. For the same cell line, the relative viability ([2]; first compound 50 µM) was 0.902, the relative viability ([3]; first compound 0.08 µM) was 0.197 and the relative viability ([3]; first compound 0.253 µM) was 0.177. The relative viability ([3]; first compound 0.8 µM) was 0.162, the relative viability ([3]; first compound 2.53 µM) was 0.182 and the relative viability ([3]; first compound 8 µM) was 0.137. The relative viability ([4]; first compound 0.08 µM) was 0.216, the relative viability ([4]; first compound 0.253 µM) was 0.206 and the relative viability ([4]; first compound 0.8 µM) was 0.231. It also gave a relative viability ([4]; first compound 2.53 µM) of 0.252 and a relative viability ([4]; first compound 8 µM) of 0.231.

With SW 1573 the relative viability ([1]; first compound 0.5 µM) was 0.592, the relative viability ([1]; first compound 1.581 µM) was 0.645 and the relative viability ([1]; first compound 5 µM) was 0.436. For the same cell line, the relative viability ([1]; first compound 15.81 µM) was 0.442, the relative viability ([1]; first compound 50 µM) was 0.204 and the relative viability ([2]; first compound 0.5 µM) was 0.872. It also gave a relative viability ([2]; first compound 1.581 µM) of 0.724, a relative viability ([2]; first compound 5 µM) of 1.08 and a relative viability ([2]; first compound 15.81 µM) of 1.07. It also gave a relative viability ([2]; first compound 50 µM) of 0.898, a relative viability ([3]; first compound 0.08 µM) of 0.557 and a relative viability ([3]; first compound 0.253 µM) of 0.637. The relative viability ([3]; first compound 0.8 µM) was 0.505, the relative viability ([3]; first compound 2.53 µM) was 0.357 and the relative viability ([3]; first compound 8 µM) was 0.117. It also gave a relative viability ([4]; first compound 0.08 µM) of 0.699, a relative viability ([4]; first compound 0.253 µM) of 0.14 and a relative viability ([4]; first compound 0.8 µM) of 0.393. For the same cell line, the relative viability ([4]; first compound 2.53 µM) was 0.204 and the relative viability ([4]; first compound 8 µM) was 0.273.

Reference: the supplement of paper PMC10307832
